Experimental data from patent publication US20230047825A1, “ANTIMICROBIAL PEPTIDES” (priority 2019, published 2023).
Values after ≈ are worked out from the molar mass of the structure shown. Read-outs that look alike come from different tables or passages of the source. Where a SMILES comes first, the peptide text is derived from it.

Assays:
[1] = tested on: MS Staphylococcus aureus ATCC 9144; type: cell-based; settings: MSSA9144
[2] = tested on: EMR Staphylococcus aureus-16 (EMRSA-16); type: cell-based; settings: EMRSA16
HEK293 = assay: Cytotoxicity assay (XTT); type: cell-based, human
Protocol: (§1) Cytotoxicity assay. HeLa and HEK293 cell lines were purchased from ECACC and cultured in Eagle's Minimum Essential Media (EMEM) containing glutamine, supplemented with 10% FBS and 1× non-essential amino acids (NEAA) at 37° C., 10% CO2. Cytotoxicity was measured by incubating starter cultures of cells for 24 hours in a 96 well plate, gently removing the supernatant and replacing it with dilutions of peptides and controls, incubating for a further 24 hours and then staining of the cells with the second generation tetrazolium dye, XTT. […]

[3] = tested on: Acinetobacter baumannii ATCC 17978; type: cell-based; settings: in µg/mL; for MIC, Stability in serum (MH): Ab17978
Klebsiella pneumoniae M6 = type: cell-based
[4] = tested on: VR Enterococcus faecium NCTC 12204; assay: Antibacterial activity assay (broth microdilution MIC); type: cell-based; settings: VRE12204, in µg/mL
[5] = tested on: Pseudomonas aeruginosa PA01; assay: as above; type: cell-based
[6] = tested on: Klebsiella pneumoniae NCTC 13368; type: cell-based; settings: in µg/mL
[7] = tested on: Pseudomonas aeruginosa NCTC 13437; assay: Antibacterial activity assay (broth microdilution MIC); type: cell-based; settings: PA13437, in µg/mL
[8] = tested on: EMR Staphylococcus aureus-15 (EMRSA-15); type: cell-based
[9] = tested on: Escherichia coli NCTC 12923; type: cell-based; settings: EC12923
HeLa = assay: Cytotoxicity assay (XTT); type: cell-based, human; design: Toxicity HeLa: unit not given beside the values
Protocol: as §1

[10] = tested on: Acinetobacter baumannii AYE; type: cell-based; settings: AYE
[11] = untitled table, medium/unit not given, values match RPMI of Table 2, in µg/mL
[12] = medium and unit not given, in µg/mL
[13] = untitled table, medium/unit inferred, values match RPMI of Table 2
[14] = untitled table, medium/unit not given, values match RPMI of Table 2

`CC(C)C[C@@H](NC(=O)[C@@H](Cc1ccc(O)cc1)NC(=O)[C@@H](Cc1c[nH]cn1)NC(=O)[C@H](NC(=O)[C@@H](CC(C)C)NC(=O)[C@@H](C)NC(=O)[C@@H](C)NC(=O)[C@@H](CCCCN)NC(=O)CNC(=O)[C@H](NC(=O)[C@@H](Cc1c[nH]cn1)NC(=O)[C@@H](CCCCN)NC(=O)CNC(=O)[C@H](NC(=O)[C@@H](Cc1c[nH]cn1)NC(=O)[C@@H](C)NC(=O)[C@@H](C)NC(=O)[C@@H](CCCCN)NC(=O)[C@@H](CCCCN)NC(=O)[C@@H](Cc1ccccc1)NC(=O)[C@@H](Cc1ccccc1)NC(=O)[C@@H](CO)NC(=O)CNC(=O)[C@@H](Cc1c[nH]c2ccccc12)NC(=O)CN)C(C)C)C(C)C)[C@H](C)O)C(N)=O` [D-pleurocidin] (HELM PEPTIDE1{G.[dW].G.[dS].[dF].[dF].[dK].[dK].[dA].[dA].[dH].[dV].G.[dK].[dH].[dV].G.[dK].[dA].[dA].[dL].[dT].[dH].[dY].[dL].[am]}$$$$V2.0; N-terminus assumed) was tested, and the MIC on initial panels ([1]; medium and unit inferred) was 2 µg/mL (≈ 0.738 µM), the MIC [1, 11] was 0.5 and the “MIC on initial panels” value [2, 12] was 16. The MIC [2, 13] was 1 µg/mL (≈ 0.369 µM), the “Toxicity HEK293” value (HEK293; unit not given) was 61.4 ± 3.9 and the “Toxicity HEK293 (EC50), Peptide concentration” value (HEK293; value printed in parentheses) was “(61.4 ± 3.9) μg/ml”. The MIC ([3]; AB17978, (MH)) was 1, the MIC ([3]; AB17978, (RPMI)) was 8 and the “MIC on initial panels” value ([3]; AB17978, medium and unit not given) was 1. The MIC ([3]; AB17978, untitled table, medium/unit not given, values match RPMI of Table 2) was 8, the “MIC, Stability in serum (MH)” value ([3]; No serum) was 1 and the “MIC, Stability in serum (MH)” value ([3]; Serum (10% fetal bovine serum)) was 0.5. The MIC (Klebsiella pneumoniae M6; (MH), in µg/mL) was 4, the MIC (Klebsiella pneumoniae M6; (RPMI), in µg/mL) was 4-8 and the MIC, Stability in serum (MH) (Klebsiella pneumoniae M6; No serum) was 4 µg/mL (≈ 1.48 µM). The MIC, Stability in serum (MH) (Klebsiella pneumoniae M6; Serum (10% fetal bovine serum)) was 4 µg/mL (≈ 1.48 µM), the “MIC on initial panels” value (Klebsiella pneumoniae M6; [12]) was 4 and the MIC (Klebsiella pneumoniae M6; [11]) was 4-8. The “MIC on initial panels” value ([4]; medium and unit not given) was 16, the MIC [4, 14] was 4 and the MIC ([5]; (MH)) was 2 µg/mL (≈ 0.738 µM). The MIC ([5]; (RPMI)) was 16 µg/mL (≈ 5.9 µM), the “MIC, Stability in serum (MH)” value ([5]; No serum, in µg/mL) was 2 and the “MIC, Stability in serum (MH)” value ([5]; Serum (10% fetal bovine serum), in µg/mL) was 4. The “MIC on initial panels” value [5, 12] was 2, the MIC [5, 13] was 16 µg/mL (≈ 5.9 µM) and the “MIC, Stability in serum (MH)” value ([6]; KP13368, No serum) was 4. The “MIC, Stability in serum (MH)” value ([6]; KP13368, Serum (10% fetal bovine serum)) was 4, the “MIC on initial panels” value ([6]; KP13368, medium and unit not given) was 4 and the MIC ([6]; KP13368, untitled table, medium/unit not given, values match RPMI of Table 2) was 8-16. The MIC ([6]; Klebsiella pneumoniae KP13368, (MH)) was 4, the MIC ([6]; Klebsiella pneumoniae KP13368, (RPMI)) was 8-16 and the MIC ([7]; (MH)) was 8. The MIC ([7]; (RPMI)) was 16-32, the “MIC, Stability in serum (MH)” value ([7]; No serum) was 8 and the “MIC, Stability in serum (MH)” value ([7]; Serum (10% fetal bovine serum)) was 16. For the same compound, the “MIC on initial panels” value ([7]; medium and unit not given) was 8, the MIC [7, 14] was 16-32 and the “MIC, Peptide concentration” value ([8]; EMR -15 (EMRSA-15)) was 1 µg/mL (≈ 0.369 µM). The MIC on initial panels ([8]; EMRSA15, medium and unit inferred) was 16 µg/mL (≈ 5.9 µM), the MIC ([8]; EMRSA15, untitled table, medium/unit inferred, values match RPMI of Table 2) was 1 µg/mL (≈ 0.369 µM) and the “MIC, Peptide concentration” value ([8]; Mueller-Hinton broth) was 16 µg/mL (≈ 5.9 µM). The MIC ([9]; (MH), in µg/mL) was 1, the MIC ([9]; (RPMI), in µg/mL) was 2-4 and the MIC, Stability in serum (MH) ([9]; No serum) was 1 µg/mL (≈ 0.369 µM). For the same compound, the MIC, Stability in serum (MH) ([9]; Serum (10% fetal bovine serum)) was 0.5 µg/mL (≈ 0.184 µM), the “MIC on initial panels” value [9, 12] was 1 and the MIC [9, 11] was 2-4. For the same compound, the “Toxicity HeLa” value (HeLa; unit not given) was 47.1 ± 2.1, the “Toxicity HeLa (EC50), Peptide concentration” value (HeLa; value printed in parentheses) was “(47.1 ± 2.1) μg/ml” and the MIC ([10]; (MH), in µg/mL) was 1. The MIC ([10]; (RPMI), in µg/mL) was 2, the MIC, Stability in serum (MH) ([10]; No serum) was 2 µg/mL (≈ 0.738 µM) and the MIC, Stability in serum (MH) ([10]; Serum (10% fetal bovine serum)) was 2 µg/mL (≈ 0.738 µM). For the same compound, the “MIC on initial panels” value [10, 12] was 1 and the MIC [10, 11] was 2.
